The results in this text go back to patent US9139569B2, “Fused tricyclic aryl compounds useful for the treatment of viral diseases” (Merck Sharp & Dohme Corp., priority 2009, dated 2015).

Assay [1] concerns HCV replicon genotype 1a. Kind of assay: Cell-based HCV replicon assay, genotype 1a. The note with it: Hepatitis C virus, 72 h, HCV replicon cells, replicon RNA by real time PCR on day 3, read-out: EC50 (nM) (gt1a). On the procedure:
(§1) To measure cell-based anti-HCV activity of selected compounds of the present invention, replicon cells were seeded at 5000 cells/well in 96-well collagen I-coated Nunc plates in the presence of the test compound. Various concentrations of test compound, typically in 10 serial 2-fold dilutions, were added to the assay mixture, with the starting concentration ranging from 250 μM to 1 μM. The final concentration of DMSO was 0.5%, fetal bovine serum was 5%, in the assay media. Cells were harvested on day 3 by the addition of 1× cell lysis buffer (Ambion cat #8721). The replicon RNA level was measured using real time PCR (Taqman assay). The amplicon was located in 5B. The PCR primers were: 5B.2F, ATGGACAGGCGCCCTGA (SEQ. ID NO. 1); 5B.2R, […] (SEQ. ID NO. 2); the probe sequence was FAM-labeled CACGCCATGCGCTGCGG (SEQ. ID NO. 3). GAPDH RNA was used as endogenous control and was amplified in the same reaction as NS5B (multiplex PCR) using primers and VIC-labeled probe recommended by the manufacturer (PE Applied Biosystem). The real-time RT-PCR reactions were run on ABI PRISM 7900HT Sequence Detection System using the following program: 48° C. for 30 min, 95° C. for 10 min, 40 cycles of 95° C. for 15 sec, 60° C. for 1 min. The ACT values (CT5B-CTGAPDH) were plotted against the concentration of test compound and fitted to the sigmoid dose-response model using XLfit4 (MDL). EC50 was defined as the concentration of inhibitor necessary to achieve ΔCT=1 over the projected baseline; EC90 the concentration necessary to achieve ΔCT=3.2 over the baseline. Alternatively, to quantitate the absolute amount of replicon RNA, a standard curve was established by including serially diluted T7 transcripts of replicon RNA in the Taqman assay. All Taqman reagents were from PE Applied Biosystems. Such an assay procedure was described in detail in e.g. Malcolm et al., Antimicrobial Agents and Chemotherapy 50: 1013-1020 (2006).
(§2) HCV replicon assay data was calculated for genotypes 1a, 1b, 2a and 3a for selected compounds of the present invention using this method and is provided in the table below.

Assay [2] relates to HCV replicon genotype 3a. Briefly: Cell-based HCV replicon assay, genotype 3a. The settings on record: Hepatitis C virus, 72 h, HCV replicon cells, replicon RNA by real time PCR on day 3, read-out: EC50 (nM) (gt3a). On the procedure:
To measure cell-based anti-HCV activity of selected compounds of the present invention, replicon cells were seeded at 5000 cells/well in 96-well collagen I-coated Nunc plates in the presence of the test compound. Various concentrations of test compound, typically in 10 serial 2-fold dilutions, were added to the assay mixture, with the starting concentration ranging from 250 μM to 1 μM. The final concentration of DMSO was 0.5%, fetal bovine serum was 5%, in the assay media. Cells were harvested on day 3 by the addition of 1× cell lysis buffer (Ambion cat #8721). The replicon RNA level was measured using real time PCR (Taqman assay). The amplicon was located in 5B. The PCR primers were: 5B.2F, ATGGACAGGCGCCCTGA (SEQ. ID NO. 1); 5B.2R, […] (SEQ. ID NO. 2); the probe sequence was FAM-labeled CACGCCATGCGCTGCGG (SEQ. ID NO. 3). GAPDH RNA was used as endogenous control and was amplified in the same reaction as NS5B (multiplex PCR) using primers and VIC-labeled probe recommended by the manufacturer (PE Applied Biosystem). […] Alternatively, to quantitate the absolute amount of replicon RNA, a standard curve was established by including serially diluted T7 transcripts of replicon RNA in the Taqman assay. […]
as §2

In assay [3] the test system is HCV replicon genotype 2a. Briefly: Cell-based HCV replicon assay, genotype 2a. The note with it: Hepatitis C virus, 72 h, HCV replicon cells, replicon RNA by real time PCR on day 3, read-out: EC50 (nM) (gt2a). On the procedure:
as §1, §2

In assay [4] the test system is HCV replicon genotype 1b. Briefly: Cell-based HCV replicon assay, genotype 1b. The note with it: Hepatitis C virus, 72 h, HCV replicon cells, replicon RNA by real time PCR on day 3, read-out: EC50 (nM) (gt1b). The method, then:
as §1, §2

As to `COC(=O)N[C@H](C(=O)N1CCC[C@H]1c1ncc(-c2ccc3cc4cc(-c5cnc([C@@H]6CCCN6C(=O)[C@@H](NC(=O)OC)C(C)C)[nH]5)ccc4cc3c2)[nH]1)C(C)C` [Compound 36], the results for the EC50 in assay [1], in assay [2] and in assay [3] were 0.001 nM, 0.01 nM and 0.039 nM, respectively.

Consider `COC(=O)N[C@H](C(=O)N1CCC[C@H]1c1ncc(-c2ccc3nc4cc(-c5cnc([C@@H]6CCCN6C(=O)[C@@H](NC(=O)OC)C(C)C)[nH]5)ccc4cc3c2)[nH]1)C(C)C` [Compound 37], for which the EC50 worked out at 0.047 nM in assay [1], 0.04 nM in assay [2], 0.71 nM in assay [3] and 0.001 nM in assay [4].

As to `COC(=O)N[C@H](C(=O)N1CCC[C@H]1c1ncc(-c2ccc3nc4cc(-c5cnc([C@@H]6CCCN6C(=O)[C@@H](NC(=O)OC)C(C)C)[nH]5)ccc4nc3c2)[nH]1)C(C)C` [Compound 38], the EC50 stood at 0.035 nM in assay [1] and 0.015 nM in assay [4].

For `COC(=O)N[C@H](C(=O)N1CCC[C@H]1c1ncc(-c2cc3cc4oc(-c5cnc([C@@H]6CCCN6C(=O)[C@@H](NC(=O)OC)C(C)C)[nH]5)cc4cc3o2)[nH]1)C(C)C` [Compound 39], the concentration giving a half-maximal response (EC50) is 0.02 nM in assay [1], 0.05 nM in assay [3] and 0.001 nM in assay [4].
